# Patent US7803930B2, “Antisense modulation of apolipoprotein B-expression” (Isis Pharmaceuticals, Inc., priority 2002, dated 2010)
# In the oligonucleotide strings, read from the 5' end, every base follows the letter of its sugar. An asterisk marks phosphorothioate; unmarked linkages are phosphodiester. Other units and linkages are bracketed, terminal groups are in braces. A string of capitals states the bases alone. e = 2'-O-(2-methoxyethyl) (MOE); [5mC] = 5-methylcytosine; d = 2'-deoxy (DNA)
# Tests used:
# [1] = tested on: Cynomolgous monkey apolipoprotein B mRNA; assay: Apolipoprotein B mRNA in primary Cynomolgous monkey hepatocytes, real-time PCR; format: cell-based; details: for % Inhibition of apolipoprotein B mRNA: primary Cynomolgous monkey hepatocytes
# Method in brief: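 Primary cynomolgus hepatocytes treated with antisense oligonucleotides at 10, 50, 150 or 300 nM (some sets 10–150 nM) for 24 or 48 h, depending on the set. mRNA quantified by real-time PCR using human apoB and GAPDH primers/probes. Values are percent inhibition normalized to untreated cells, averaged over 2–6 experiments.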
# apolipoprotein B protein = assay: Apolipoprotein B protein secreted from primary Cynomolgous monkey hepatocytes, ELISA; format: cell-based; details: for % Reduction of monkey apolipoprotein B protein secretion / secretion of apolipoprotein B protein (ELISA): primary Cynomolgous hepatocytes; for % Reduction in secreted apolipoprotein B protein: primary Cynomolgous monkey hepatocytes;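 for % Reduction in secreted apolipoprotein B protein: normalized to untreated control cells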
# Method in brief: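 Primary cynomolgus hepatocytes treated with oligonucleotide at 150 and 300 nM, or 50 and 150 nM for some compounds; secreted apoB protein quantified by apoB-specific ELISA. Values are means of 3 experiments.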
# [2] = tested on: human apolipoprotein(a) mRNA; assay: Apolipoprotein(a) mRNA expression in primary human hepatocytes, real-time PCR; format: cell-based; details: 24 hours; for % Change in apolipoprotein(a) mRNA expression following antisense inhibition of apolipoprotein B: primary human hepatocytes; for expression of apolipoprotein(a) mRNA: human primary hepatocytes, 5, 10, 50 or 150 nM
# Method: Primary human hepatocytes (InVitro Technologies, Baltimore, Md.), cultured and transfected as described herein, were treated with 5, 10, 50 or 150 nM of ISIS 271009 (SEQ ID NO: 319), 281625 (SEQ ID NO: 224), 301012 (SEQ ID NO: 247) or 301027 (SEQ ID NO: 262). Cells were also treated with 50 or 150 nM of the control oligonucleotides ISIS 113529 (SEQ ID NO: 859) or ISIS 13650 (SEQ ID NO: 806). Untreated cells served as a control. Following 24 hours of oligonucleotide treatment, apolipoprotein(a) mRNA expression was measured by quantitative real-time PCR as described in other examples herein.
# Probes and primers to human apolipoprotein(a) were designed to hybridize to a human apolipoprotein(a) sequence, using published sequence information (GenBank accession number NM_005577.1, incorporated herein as SEQ ID NO: 860). For human apolipoprotein(a) the PCR primers were: […]
# forward primer: […] (SEQ ID NO: 861)
# reverse primer: TGCGTCTGAGCATTGCGT (SEQ ID NO: 862) and the PCR probe was: FAM-[…]-TAMRA (SEQ ID NO: 863) where FAM is the fluorescent dye and TAMRA is the quencher dye.
# Data are the average of three experiments and are expressed as percent inhibition relative to untreated controls.
# [3] = Time course at two doses in female C57BL/6 mice (Example 49): AST and ALT levels; format: in vivo, mouse
# Method: Female C57BL/6 mice were divided into two groups—one group receiving oligonucleotide treatment and control animals receiving saline treatment. After overnight fasting, mice were dosed intraperitoneally twice a week with saline or 25 mg/kg or 50 mg/kg of ISIS 281625 (SEQ ID NO: 224), ISIS 301012 (SEQ ID NO: 247), or ISIS 301027 (SEQ ID NO: 262). After 2 weeks, a blood sample was taken from the tail of the mice and evaluated for liver enzyme. After 4 weeks, and study termination, animals were sacrificed and evaluated for liver enzyme levels.
# [4] = 150 nM (Table 49), "+" = secretion increased
# [5] = 50 nM (Table 49), "+" = secretion increased
# [6] = 25 mg/kg i.p. twice a week, 2 weeks
# [7] = 25 mg/kg i.p. twice a week, 4 weeks
# [8] = 50 mg/kg i.p. twice a week, 2 weeks
# [9] = 50 mg/kg i.p. twice a week, 4 weeks
# [10] = 25 or 50 mg/kg (either dose) i.p. twice a week, after 2 weeks
# [11] = higher dose (50 mg/kg), after 4 weeks
# [12] = lower dose (25 mg/kg), after 4 weeks
Substance,"% Inhibition of apolipoprotein B mRNA ([1]; 150 nM, 24 hours (Table 48)) [%]",% Reduction of monkey apolipoprotein B protein secretion (apolipoprotein B protein; [4]) [%],% Change in apolipoprotein(a) mRNA expression following antisense inhibition of apolipoprotein B ([2]; 50 nM),% Change in apolipoprotein(a) mRNA expression following antisense inhibition of apolipoprotein B ([2]; 150 nM),% Change in apolipoprotein(a) mRNA expression following antisense inhibition of apolipoprotein B ([2]; 5 nM),% Change in apolipoprotein(a) mRNA expression following antisense inhibition of apolipoprotein B ([2]; 10 nM),"ALT [3, 6] [IU/L]","AST [3, 6] [IU/L]","ALT [3, 7] [IU/L]","AST [3, 7] [IU/L]","ALT [3, 8] [IU/L]","AST [3, 8] [IU/L]","ALT [3, 9] [IU/L]","AST [3, 9] [IU/L]","AST and ALT levels [3, 10]",expression of apolipoprotein(a) mRNA [2],further results
113529 (antisense e[5mC]*eT*e[5mC]*eT*eT*dA*d[5mC]*dT*dG*dT*dG*d[5mC]*dT*dG*dT*eG*eG*eA*e[5mC]*eA) [compound 113529],11,15,+14%,−9%,–,–,–,–,–,–,–,–,–,–,–,–,"% Inhibition of apolipoprotein B mRNA ([1]; 150 nM, 24 hours): 5%; % Inhibition of apolipoprotein B mRNA ([1]; 150 nM, 48 hours): 42%; % Inhibition of apolipoprotein B mRNA ([1]; 300 nM, 24 hours): 19%; % Inhibition of apolipoprotein B mRNA ([1]; 300 nM, 24 hours (Table 46)): 28%; % Inhibition of apolipoprotein B mRNA ([1]; 300 nM, 48 hours): 13%; % Reduction of monkey apolipoprotein B protein secretion (apolipoprotein B protein; 150 nM (Table 47)): 12%; % Reduction in secreted apolipoprotein B protein (apolipoprotein B protein; 150 nM, 24 hours): 11%; % Reduction in secreted apolipoprotein B protein (apolipoprotein B protein; 150 nM, 48 hours): 18%; % Reduction in secreted apolipoprotein B protein (apolipoprotein B protein; 300 nM, 24 hours): 12%; % Reduction in secreted apolipoprotein B protein (apolipoprotein B protein; 300 nM, 48 hours): 8%"
271009 (antisense eG*e[5mC]*e[5mC]*eT*e[5mC]*dA*dG*dT*d[5mC]*dT*dG*d[5mC]*dT*dT*d[5mC]*eG*e[5mC]*eG*e[5mC]*e[5mC]) [compound 271009],69,26,+25%,−47%,+70%,+31%,–,–,–,–,–,–,–,–,–,–,"% Inhibition of apolipoprotein B mRNA ([1]; 10 nM, 24 hours (Table 48)): 42%; % Inhibition of apolipoprotein B mRNA ([1]; 50 nM, 24 hours (Table 48)): 66%; % Reduction of monkey apolipoprotein B protein secretion (apolipoprotein B protein; [5]): +30%"
281625 (antisense eA*eG*eG*eT*eT*dA*d[5mC]*d[5mC]*dA*dG*d[5mC]*d[5mC]*dA*d[5mC]*dA*eT*eG*e[5mC]*eA*eG) [compound 281625],–,–,−34%,+32%,−9%,−23%,21.2,40.8,31.8,75,30.8,44.4,210.4,152.4,–,–,"% Inhibition of apolipoprotein B mRNA ([1]; 10 nM, 24 hours (Table 46), ""+"" = expression increased): +5%; % Inhibition of apolipoprotein B mRNA ([1]; 50 nM, 24 hours (Table 46)): 41%; % Inhibition of apolipoprotein B mRNA ([1]; 150 nM, 24 hours (Table 46), ""+"" = expression increased): 35%; % Inhibition of apolipoprotein B mRNA ([1]; 300 nM, 24 hours (Table 46)): 69%; % Reduction of monkey apolipoprotein B protein secretion (apolipoprotein B protein; 50 nM (Table 47)): 6%; % Reduction of monkey apolipoprotein B protein secretion (apolipoprotein B protein; 150 nM (Table 47)): 13%"
301012 (eG*e[5mC]*e[5mC]*eT*e[5mC]*dA*dG*dT*d[5mC]*dT*dG*d[5mC]*dT*dT*d[5mC]*eG*e[5mC]*eA*e[5mC]*e[5mC]) [compound 301012],–,–,+30%,+38%,+34%,+86%,22.4,37.2,24.8,89.8,23.2,38.4,29.2,107.4,–,–,"% Inhibition of apolipoprotein B mRNA ([1]; 10 nM, 24 hours): 24%; % Inhibition of apolipoprotein B mRNA ([1]; 10 nM, 48 hours): 76%; % Inhibition of apolipoprotein B mRNA ([1]; 50 nM, 24 hours): 60%; % Inhibition of apolipoprotein B mRNA ([1]; 50 nM, 48 hours): 77%; % Inhibition of apolipoprotein B mRNA ([1]; 150 nM, 24 hours): 56%; % Inhibition of apolipoprotein B mRNA ([1]; 150 nM, 48 hours): 88%; % Inhibition of apolipoprotein B mRNA ([1]; 300 nM, 24 hours): 61%; % Inhibition of apolipoprotein B mRNA ([1]; 300 nM, 48 hours): 86%; % Reduction in secreted apolipoprotein B protein (apolipoprotein B protein; 150 nM, 24 hours): 31%; % Reduction in secreted apolipoprotein B protein (apolipoprotein B protein; 150 nM, 48 hours): 25%; % Reduction in secreted apolipoprotein B protein (apolipoprotein B protein; 300 nM, 24 hours): 10%; % Reduction in secreted apolipoprotein B protein (apolipoprotein B protein; 300 nM, 48 hours): 17%"
301027 (eG*e[5mC]*eT*e[5mC]*eA*d[5mC]*dT*dG*dT*dA*dT*dG*dG*dT*dT*eT*eT*eA*eT*e[5mC]; antisense) [compound 301027],67,31,−39%,−43%,−16%,−45%,27.2,55.4,311.2,537.6,34.8,64,1194,1884,–,–,"% Inhibition of apolipoprotein B mRNA ([1]; 10 nM, 24 hours (Table 48)): 40%; % Inhibition of apolipoprotein B mRNA ([1]; 50 nM, 24 hours (Table 48)): 54%; % Reduction of monkey apolipoprotein B protein secretion (apolipoprotein B protein; [5]): 25%"
"ISIS 281625: SEQ ID NO: 224, 2′-MOE gapmer targeted to human apolipoprotein B (antisense eA*eG*eG*eT*eT*dA*d[5mC]*d[5mC]*dA*dG*d[5mC]*d[5mC]*dA*d[5mC]*dA*eT*eG*e[5mC]*eA*eG)",–,–,–,–,–,–,–,–,–,–,–,–,–,–,remained close to those of saline,decreased,"AST and ALT levels over saline treated animals [3, 11]: large increase; AST and ALT levels over saline treated animals [3, 12]: moderate increase; inhibition of apolipoprotein B mRNA expression ([1]; Cynomolgous monkey primary hepatocytes, 10, 50, 150 or 300 nM, 24 hours): in a dose-dependent manner; secretion of apolipoprotein B protein (ELISA) (apolipoprotein B protein; 50 and 150 nM (statement after Table 49)): decrease"
"ISIS 301012: SEQ ID NO: 247, antisense oligonucleotide targeted to human apolipoprotein B (antisense GCCTCAGTCTGCTTCGCACC; chemistry not given here)",–,–,–,–,–,–,–,–,–,–,–,–,–,–,remained close to those of saline,did not inhibit,"AST and ALT levels over saline treated animals [3, 11]: large increase; AST and ALT levels over saline treated animals [3, 12]: moderate increase; inhibition of apolipoprotein B mRNA expression ([1]; cynomolgous monkey primary hepatocytes, 10, 50, 150 or 300 nM): in a dose- and time-dependent manner; secretion of apolipoprotein B protein (ELISA) (apolipoprotein B protein; 150 and 300 nM): decrease"
"ISIS 301027: SEQ ID NO: 262, 2′-MOE gapmer targeted to human apolipoprotein B (antisense eG*e[5mC]*eT*e[5mC]*eA*d[5mC]*dT*dG*dT*dA*dT*dG*dG*dT*dT*eT*eT*eA*eT*e[5mC])",–,–,–,–,–,–,–,–,–,–,–,–,–,–,small increase,decreased,"AST and ALT levels ([3]; either dose, after 4 weeks): huge increase; inhibition of apolipoprotein B mRNA expression ([1]; Cynomolgous monkey primary hepatocytes, 10, 50 and 150 nM, 24 hours): in a dose-dependent manner"
